Article PMC8922279, “Identification of β-Lactams Active against Mycobacterium tuberculosis by a Consortium of Pharmaceutical Companies and Academic Institutions” (ACS Infectious Diseases, 2022)
Converted amounts (≈) assume the structure as drawn.

How the values were obtained:
in vitro [1] = details: human, plasma, Plasma stability % Remaining
[2] = 300 mg/kg sc, uninfected DHP-1 mice
physchem = details: simulated gi fluid, pH 6.5, FaSSIF Stability, % remaining
in vitro [3] = details: beagle, dog, plasma
in vitro [4] = details: beagle, dog, plasma, pH 7.4
in vitro [5] = details: CD-1, mouse, plasma, pH 7.4, % bound to plasma
C. albicans = test: Microbial spectrum, C. albicans; format: cell-based, Candida albicans
CYP3A4 = CYP3A4 (Homo sapiens, UniProt P08684); test: CYP3A4 inhibition
in vivo = details: female, 129sv DHP-1 knockout, mouse, sc, 50 mg/kg
plasma proteins [6] = details: 4 h, 2 μM, pH 7.4
[7] = Metabolic stability, mouse; format: in vitro ADME
Mtb H37Rv = test: MIC90 against nonreplicating (NR, 4-stress) Mtb H37Rv, with or without clavulanate; format: cell-based, Mycobacterium tuberculosis; details: 4-stress nonreplicating, Table S4
in vitro [8] = details: male, CD-1, mouse, plasma, Plasma stability % Remaining
hERG = target: T1, hERG (Homo sapiens, UniProt Q12809); test: hERG channel measurements (QPatch automated patch clamp); format: cell-based; details: HEK293 cells stably transfected with hERG (inducible), pH 7.4
T1 construct: expressed in transfected cells
Procedure: The potency of the compounds in inhibiting the human ERG potassium channel (hERG) tail current was assessed in a recombinant HEK293 cell line stably transfected with hERG cDNA under an inducible promoter using the rapid ICE (rapid ion channel electrophysiology) assay. Rapid ICE is an automated patch clamp assay utilizing a QPatch HTX system (Sophion Bioscience A/S). Briefly, inducible HEK hERG cells were cultivated in minimum essential medium supplemented with 10% FBS, 1% nonessential amino acids, 1% sodium pyruvate, 2 mM L-glutamine, 15 μg/mL blasticidin, and 100 μg/mL hygromycin. hERG channel induction was obtained by adding 10 μg/mL tetracycline for 24, 48, or 72 h before recordings. On the day of the experiment, cells were detached with TrypLE and prepared to be loaded on the instrument. Cells were resuspended in 7 mL of serum-free media containing 25 mM Hepes and soybean trypsin inhibitor and immediately placed in the cell storage tank of the machine. […] The voltage protocol was run and recorded continuously during the experiment. […] The average of tail current amplitude values recorded from four sequential voltage pulses was used to calculate for each cell the effect of the test substance by calculating the residual current (% control) compared with vehicle pretreatment. […]

P. aeruginosa = test: Microbial spectrum, P. aeruginosa; format: cell-based, Pseudomonas aeruginosa
S. aureus = test: Microbial spectrum, S. aureus; format: cell-based, Staphylococcus aureus
in vitro [9] = details: human, plasma, pH 7.4, % bound to plasma
[10] = 2 h, 2 μM
plasma proteins [11] = details: 4 h, 2 μM, pH 7.4; remark: listed apart in the source
in vitro [12] = details: cynomolgus monkey, plasma, pH 7.4
E. coli = test: Microbial spectrum, E. coli; format: cell-based, Escherichia coli
[13] = SD, 2 h, 2 μM
[14] = Cytotoxicity against HepG2 cells (CellTiter-Glo); format: cell-based, human; details: human, HepG2 cells
Procedure: (§1) Compounds were tested for cytotoxicity against HepG2 cells as previously described.[48],[69],[70] Briefly, cells were exposed to compounds for 48–72 h, and viability was measured using CellTiter-Glo (Promega).

HepG2 cells = test: Cytotoxicity against HepG2 cells (CellTiter-Glo); format: cell-based, human; details: Table S4
Procedure: as §1

[15] = Metabolic stability, human; format: in vitro ADME
Procedure: Metabolic stability and induction of human hepatocytes were performed as previously described.[71]

WT Mtb H37Rv = test: Colony-forming unit (CFU) assay, replicating WT Mtb H37Rv; format: cell-based, Mycobacterium tuberculosis

T1 sequence (Q12809 whole entry): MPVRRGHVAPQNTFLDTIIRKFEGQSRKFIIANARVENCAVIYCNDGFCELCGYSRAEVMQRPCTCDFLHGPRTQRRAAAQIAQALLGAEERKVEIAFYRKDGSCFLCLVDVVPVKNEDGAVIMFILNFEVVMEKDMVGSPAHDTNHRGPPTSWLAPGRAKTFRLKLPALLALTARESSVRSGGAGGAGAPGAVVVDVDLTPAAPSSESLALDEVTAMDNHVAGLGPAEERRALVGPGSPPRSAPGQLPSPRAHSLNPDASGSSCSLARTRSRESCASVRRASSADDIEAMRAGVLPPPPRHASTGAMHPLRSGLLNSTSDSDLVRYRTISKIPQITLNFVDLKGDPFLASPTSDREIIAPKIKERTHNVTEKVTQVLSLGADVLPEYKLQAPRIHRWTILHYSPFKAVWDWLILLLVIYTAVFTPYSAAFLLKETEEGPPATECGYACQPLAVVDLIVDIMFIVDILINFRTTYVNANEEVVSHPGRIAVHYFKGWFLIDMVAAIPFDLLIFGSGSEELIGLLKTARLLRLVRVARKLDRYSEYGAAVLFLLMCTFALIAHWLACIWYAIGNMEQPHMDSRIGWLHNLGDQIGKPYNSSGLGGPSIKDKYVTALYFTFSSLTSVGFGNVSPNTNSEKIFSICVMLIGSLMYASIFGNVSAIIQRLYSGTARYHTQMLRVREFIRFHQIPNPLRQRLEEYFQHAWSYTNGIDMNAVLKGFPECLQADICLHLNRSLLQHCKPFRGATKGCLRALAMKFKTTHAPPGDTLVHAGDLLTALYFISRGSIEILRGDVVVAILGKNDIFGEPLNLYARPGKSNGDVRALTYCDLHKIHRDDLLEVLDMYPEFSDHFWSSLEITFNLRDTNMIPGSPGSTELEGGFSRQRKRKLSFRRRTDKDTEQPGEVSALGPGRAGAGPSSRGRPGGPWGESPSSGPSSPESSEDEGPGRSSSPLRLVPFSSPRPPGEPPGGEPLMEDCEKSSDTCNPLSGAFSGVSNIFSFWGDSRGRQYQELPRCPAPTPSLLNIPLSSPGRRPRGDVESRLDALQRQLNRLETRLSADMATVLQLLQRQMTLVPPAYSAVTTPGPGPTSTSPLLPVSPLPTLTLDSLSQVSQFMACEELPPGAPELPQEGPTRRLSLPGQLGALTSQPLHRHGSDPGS
Sequence of CYP3A4 (P08684 whole entry, species assumed): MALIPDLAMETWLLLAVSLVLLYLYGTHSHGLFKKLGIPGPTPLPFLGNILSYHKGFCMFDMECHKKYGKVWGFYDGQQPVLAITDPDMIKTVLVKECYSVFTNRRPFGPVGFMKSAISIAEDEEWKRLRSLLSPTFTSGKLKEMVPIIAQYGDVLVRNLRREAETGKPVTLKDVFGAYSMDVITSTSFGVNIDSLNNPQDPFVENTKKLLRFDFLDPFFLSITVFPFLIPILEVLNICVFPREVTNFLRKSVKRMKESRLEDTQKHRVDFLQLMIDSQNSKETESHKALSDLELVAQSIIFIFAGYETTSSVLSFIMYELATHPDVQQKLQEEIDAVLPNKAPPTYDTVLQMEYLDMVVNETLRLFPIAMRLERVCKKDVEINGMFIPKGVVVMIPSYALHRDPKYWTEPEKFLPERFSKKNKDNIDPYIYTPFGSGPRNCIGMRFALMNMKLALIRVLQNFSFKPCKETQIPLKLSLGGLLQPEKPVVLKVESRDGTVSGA

Q: What does the source list for `O=C(Cc1ccc(C2=NCCN2)cc1)N[C@@H]1C(=O)N2C(C(=O)O)=C(CSc3nncs3)CS[C@H]12` [TBBL-0000316]?
A: remaining at 2 h, 2 μM (in vitro [1]): 86.1%; Tlast [2]: 2.0 to 4.0 h; remaining at 6 h, 10 μM (physchem; 6h): 94.7%; remaining at 24 h, 10 μM (physchem; 24h): 84.2%; remaining at 2 h, 2 μM (in vitro [3]): 77.3%; fraction unbound at 4 h, 2 μM (in vitro [4]): 0.973; fraction unbound at 4 h, 2 μM (in vitro [5]): 0.817; Caco-2 Rank Papp (Caco-2 cells): Low; Efflux Transporter Substrate (Caco-2 cells): Poor or no; MIC90 (C. albicans; Candida albicans, C. albicans): > 100 µM; C.albicans R (MIC90) (C. albicans; no clavulanate, Table S4): > 100 µM; IC50 (CYP3A4): > 25 µM; AUC(0-t) (in vivo): 23700 ng·h/mL; Cmax (in vivo): 17500 ng/mL; Tmax (in vivo): 30 min; % bound to plasma, Human (plasma proteins [6]): 38%; metabolic stability [7]: 1.1 μL/min/mg protein; metabolic stability 1/2 life [7]: 1300 min; Mtb H37Rv NR + CLAV (MIC90) (Mtb H37Rv; clavulanate 4 μg/mL): > 100 µM; Mtb H37Rv NR (MIC90) (Mtb H37Rv; no clavulanate): > 100 µM; remaining at 2 h, 2 μM (in vitro [8]): 88.5%; IC50 at 5 min (hERG): > 50 µM; MIC90 (P. aeruginosa; Pseudomonas aeruginosa, P. aeruginosa): > 100 µM; P.aeruginosa R + CLAV (MIC90) (P. aeruginosa; clavulanate 4 μg/mL, Table S4): > 100 µM; MIC90 (S. aureus; Staphylococcus aureus, S. aureus, with 4 μg/mL clavulanate): 0.86 µM; S.aureus R + CLAV (MIC90) (S. aureus; clavulanate 4 μg/mL, Table S4): 0.9 µM; fraction unbound at 4 h, 2 μM (in vitro [9]): 0.619; Plasma stability % Remaining, Human [10]: 86%; % bound to plasma, SD Rat (plasma proteins [11]): 62%; fraction unbound at 4 h, 2 μM (in vitro [12]): 0.335; MIC90 (E. coli; Escherichia coli, E. coli): 31.8 µM (≈ 16.4 µg/mL); E.coli R + CLAV (MIC90) (E. coli; clavulanate 4 μg/mL, Table S4): 31.8 µM; Plasma stability % Remaining, Rat [13]: 86%; IC50 [14]: > 100 µM; HepG2 LD50 (HepG2 cells): > 100 µM; metabolic stability [15]: 5.4 μL/min/mg protein; metabolic stability 1/2 life [15]: 256 min; reduction in CFU (WT Mtb H37Rv; daily dosing for 5 days with 4 μg/mL clavulanate, at ≥1 μM): 3–4 log10; reduction in CFU (WT Mtb H37Rv; single dose at 10 μM, one-week exposure, 4 μg/mL clavulanate): 3.5 log10
